We go through 24 compounds from article PMC9569940, “Discovery and In Vivo Efficacy of Trace Amine-Associated Receptor 1 (TAAR1) Agonist 4-(2-Aminoethyl)-N-(3,5-dimethylphenyl)piperidine-1-carboxamide Hydrochloride (AP163) for the Treatment of Psychotic Disorders” (International Journal of Molecular Sciences, 2022).

Entries after “also recorded” stand apart in the source; their conditions may differ. Where a name gives a salt, the structure may show the parent alone.

The target of one data set is T1, TAAR1 (Homo sapiens, UniProt Q96RJ0).
T1 construct: expressed in transfected cells; host or cells: HEK-293 cells, transient transfection
T1 sequence (Q96RJ0 1-339): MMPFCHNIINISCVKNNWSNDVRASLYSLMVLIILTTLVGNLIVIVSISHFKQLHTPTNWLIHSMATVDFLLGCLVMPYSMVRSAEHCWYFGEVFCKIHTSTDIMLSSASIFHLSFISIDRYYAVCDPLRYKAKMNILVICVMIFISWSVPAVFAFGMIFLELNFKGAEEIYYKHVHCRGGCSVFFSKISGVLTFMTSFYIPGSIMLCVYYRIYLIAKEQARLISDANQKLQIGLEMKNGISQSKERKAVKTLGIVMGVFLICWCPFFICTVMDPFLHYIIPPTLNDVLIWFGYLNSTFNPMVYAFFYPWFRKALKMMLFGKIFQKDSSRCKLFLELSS
Nature of the data set: BRET cAMP biosensor (EPAC) assay of TAAR1 agonistic activity in transiently transfected HEK-293 cells. Format: cell-based. The following applies: for EC50 / EC50, μM: TAAR1 agonistic activity, concentration-response; for Agonistic Activity at 1 μM, %: compound at 1 μM; for Agonistic Activity at 1 μM, % / activation at 10 µM: compared to 1 μM tyramine hydrochloride (positive control), primary screening; for TAAR1 Activity (active / inactive, in words): agonistic activity in words; for Agonistic Activity (class Inactive): primary screening at 1 μM or 10 μM, relative to 1 μM tyramine hydrochloride; for activation at 10 µM: HEK293, compound at 10 μM (footnote c). The arrangement: key to Agonistic Activity (class Inactive): Inactive: Producing less than 20% activation of TAAR1 relative to 1 μM tyramine hydrochloride. As for the experimental part:
Compounds 7–29 synthesized as described above (as well the initial hit compound 1 used as a comparator) were tested in the Bioluminescence Resonance Energy Transfer approach (BRET) assay using HEK-293 cells transiently transfected with cDNA for TAARs as well as cAMP BRET biosensor (EPAC) protein. The compounds were initially tested at 1 μM or 10 μM concentrations and those producing <20% activation of TAAR1 (relative to 1 μM tyramine hydrochloride) were not pursued further. The active compounds were further evaluated in a dose–response mode in order to determine their EC50 values.
The Bioluminescence Resonance Energy Transfer approach (BRET) has been used for functional activity experiments. HEK-293 cells were transiently transfected with cDNA for TAARs and cAMP BRET biosensor (EPAC) protein and then plated in a 96-well plate as described. All compounds were tested at the initial concentrations of 1 μM or 10 μM. Then, for active compounds, a concentration–response analysis was performed in order to calculate the EC50 values. Natural agonist of TAAR1 tyramine hydrochloride was used as a positive control.

Data set [1] relates to dopamine transporter knockout (DAT-KO) rats. Nature of the data set: DAT-KO rat hyperlocomotion test. The class given is in vivo. Conditions: for Reduction in hyperlocomotion of DAT-KO rats: i.p., 90 min locomotion test, dose range 5–15 mg/kg for 18. As for the experimental part: Compounds 9, 17–19 were evaluated in dopamine transporter knockout (DAT-KO) rats characterized with psychosis-like hyperlocomotion activity. The ability of compounds to reduce the hyperlocomotion in these genetically modified animals generally deemed as an adequate model of psychosis-like states and schizophrenia was expected to unveil the potential of these compounds as potential therapies for these psychiatric disorders.
Twelve Wistar dopamine transporter knockout (DAT-KO) female rats were utilized for assessment of drugs’ activity on hyperlocomotion. Animals were maintained on a 12/12 light/dark cycle at the room temperature maintained between 20 °C and 23 °C with a relative humidity maintained between 30% and 70%. Chow and water were provided ad libitum for the duration of the studies.
All compounds were dissolved in physiological saline (0.9% solution of NaCl) and intraperitoneally injected in volume 10 mL/kg immediately before locomotion testing.
Rats were intraperitoneally injected with a compound solution or vehicle (saline) and were immediately placed in Plexiglas boxes 40 cm × 40 cm × 40 cm for 90 min. Noldus EthoVision software was used to measure the distance moved by the animals.

A further data set is described as follows: Solubility. Conditions: reason for not progressing to in vivo tests. Format: physicochemical.

As to `Cl.NCCC1CCN(C(=O)Nc2ccccc2)CC1` [Compound 1, 4-(2-Aminoethyl)-N-phenylpiperidine-1-carboxamide hydrochloride], on TAAR1, it took 507 nM to reach a half-maximal effect (EC50) and the “Agonistic Activity at 1 μM, %” value turned out to be 65%.

Consider `Cc1ccc(NC(=O)N2CCC(CCN)CC2)cc1.Cl` [Compound 7, 4-(2-Aminoethyl)-N-(4-methylphenyl)piperidine-1-carboxamide hydrochloride], for which, on TAAR1, the “TAAR1 Activity (active / inactive, in words)” value is recorded as “Inactive” and the “Agonistic Activity (class Inactive)” value is listed as “Inactive ^b”.

In the case of `Cl.NCCC1CCN(C(=O)Nc2cccc(F)c2)CC1` [Compound 8, 4-(2-Aminoethyl)-N-(3-fluorophenyl)piperidine-1-carboxamide hydrochloride], the “Agonistic Activity (class Inactive)” value at TAAR1 is recorded as “Inactive”.

In the case of `Cc1cccc(NC(=O)N2CCC(CCN)CC2)c1.Cl` [Compound 9, 4-(2-Aminoethyl)-N-(3-methylphenyl)piperidine-1-carboxamide hydrochloride], on TAAR1, a half-maximal response (EC50) required 52 nM; the “TAAR1 Activity (active / inactive, in words)” value was “Active”; the “Agonistic Activity at 1 μM, %” value came out at 89%. For the same compound, in data set [1], the “Reduction in hyperlocomotion of DAT-KO rats” value (“Reduction in hyperlocomotion” for short) was “absence of in vivo efficacy”.

Regarding `Cc1ccccc1NC(=O)N1CCC(CCN)CC1.Cl` [Compound 10, 4-(2-Aminoethyl)-N-(2-methylphenyl)piperidine-1-carboxamide hydrochloride], at TAAR1, the “TAAR1 Activity (active / inactive, in words)” value was “Inactive” and the “Agonistic Activity (class Inactive)” value is listed as “Inactive”.

On to `Cl.NCCC1CCN(C(=O)Nc2ccc(F)cc2)CC1` [Compound 11, 4-(2-Aminoethyl)-N-(4-fluorophenyl)piperidine-1-carboxamide hydrochloride], for which, at TAAR1, it took 206 nM to reach a half-maximal effect (EC50); the “EC50, μM” value is on record as “submicromolar”; the “Agonistic Activity at 1 μM, %” value turned out to be 84%.

For `Cl.NCCC1CCN(C(=O)Nc2cc(F)ccc2F)CC1` [Compound 12, 4-(2-Aminoethyl)-N-(2,5-difluorophenyl)piperidine-1-carboxamide hydrochloride], at TAAR1, the EC50 came to 273 nM; the “TAAR1 Activity (active / inactive, in words)” value is “Active”; the “Agonistic Activity at 1 μM, %” value stood at 75%.

Turning to `Cl.NCCC1CCN(C(=O)Nc2ccc(F)cc2F)CC1` [Compound 13, 4-(2-Aminoethyl)-N-(2,4-difluorophenyl)piperidine-1-carboxamide hydrochloride], at TAAR1, the “TAAR1 Activity (active / inactive, in words)” value is recorded as “Inactive” and the “Agonistic Activity (class Inactive)” value is “Inactive”.

As to `Cl.NCCC1CCN(C(=O)Nc2cc(F)cc(F)c2)CC1` [Compound 14, 4-(2-Aminoethyl)-N-(3,5-difluorophenyl)piperidine-1-carboxamide hydrochloride], on TAAR1, the “TAAR1 Activity (active / inactive, in words)” value is “Inactive” and the “Agonistic Activity (class Inactive)” value is recorded as “Inactive”.

Regarding `Cc1ccc(NC(=O)N2CCC(CCN)CC2)cc1F.Cl` [Compound 15, 4-(2-Aminoethyl)-N-(3-fluoro-4-methylphenyl)piperidine-1-carboxamide hydrochloride], on TAAR1, the “EC50, μM” value is “inactive” and the “Agonistic Activity (class Inactive)” value is recorded as “Inactive”.

At TAAR1, `Cc1cc(NC(=O)N2CCC(CCN)CC2)ccc1F` [Compound 16, 4-(2-Aminoethyl)-N-(4-fluoro-3-methylphenyl)piperidine-1-carboxamide hydrochloride] showed an activation at 10 µM of 107% and an EC50 of 143 nM.

As for `Cc1ccc(NC(=O)N2CCC(CCN)CC2)cc1C.Cl` [Compound 17, 4-(2-Aminoethyl)-N-(3,4-dimethylphenyl)piperidine-1-carboxamide hydrochloride], at TAAR1, the activation at 10 µM is 84% and it took 33 nM to reach a half-maximal effect (EC50). Besides, in data set [1], the “Reduction in hyperlocomotion” value was “absence of in vivo efficacy”.

For the compound `Cc1cc(C)cc(NC(=O)N2CCC(CCN)CC2)c1.Cl` [Compound 18, 4-(2-Aminoethyl)-N-(3,5-dimethylphenyl)piperidine-1-carboxamide hydrochloride], the activation at 10 µM on TAAR1 is 85%. On TAAR1, the response was half-maximal at 112 nM (EC50). In addition, the “Effect on DAT-KO hyperlocomotion at 5 mg/kg” value in data set [1] (5 mg/kg i.p., dynamics for 90 min, two-way ANOVA) is “did not reveal significant effect”. In addition, the “Effect on DAT-KO hyperlocomotion at 10 mg/kg” value in data set [1] (10 mg/kg i.p., 90 min, two-way ANOVA) was “significantly decreased hyperlocomotion”. In addition, the “Effect on DAT-KO hyperlocomotion at 15 mg/kg” value in data set [1] (15 mg/kg i.p., 90 min, two-way ANOVA) is reported as “significantly decreased DAT-KO hyperlocomotion”. Besides, the “Reduction in hyperlocomotion” value in data set [1] (listed as 18 (AP163)) was “statistically significant, dose-dependent reduction; also recorded: significantly attenuated DAT-KO hyperlocomotion”; in data set [1] (listed as AP163) it was “statistically significant and dose-dependent reduction in hyperlocomotion”.

With `Cc1ccc(C)c(NC(=O)N2CCC(CCN)CC2)c1.Cl` [Compound 19, 4-(2-Aminoethyl)-N-(2,5-dimethylphenyl)piperidine-1-carboxamide hydrochloride], on TAAR1, the activation at 10 µM came to 80% and the EC50 is 42 nM. Moreover, in data set [1], the “Reduction in hyperlocomotion” value is listed as “absence of in vivo efficacy”.

On to `Cc1cccc(NC(=O)N2CCC(CCN)CC2)c1C` [Compound 20, 4-(2-Aminoethyl)-N-(2,3-dimethylphenyl)piperidine-1-carboxamide hydrochloride], for which, on TAAR1, the activation at 10 µM was determined as 82% and it took 914 nM to reach a half-maximal effect (EC50).

On TAAR1, `Cl.NCCC1CCN(C(=O)Nc2cccc(C(F)(F)F)c2)CC1` [Compound 21, 4-(2-Aminoethyl)-N-(3-(trifluoromethyl)phenyl)piperidine-1-carboxamide hydrochloride] registered an activation at 10 µM of 96% and an EC50 of 35 nM. For the same compound, in “Solubility”, the Solubility result is given as “poor solubility”.

At TAAR1, `COc1ccc(C)cc1NC(=O)N1CCC(CCN)CC1` [Compound 22, 4-(2-Aminoethyl)-N-(2-methoxy-5-methylphenyl)piperidine-1-carboxamide hydrochloride] came in with an activation at 10 µM of 84% and an EC50 of 1900 nM.

With `Cl.NCCC1CCN(C(=O)Nc2cccc(Cl)c2)CC1` [Compound 23, 4-(2-Aminoethyl)-N-(3-chlorophenyl)piperidine-1-carboxamide hydrochloride], at TAAR1, the “Agonistic Activity (class Inactive)” value is “Inactive”.

On TAAR1, `NCCC1CCN(C(=O)c2ccccc2)CC1` [Compound 24, (4-(2-Aminoethyl)piperidin-1-yl)(phenyl)methanone hydrochloride] registered an activation at 10 µM of 31% and an EC50 of 635 nM.

Consider `Cc1cccc(C(=O)N2CCC(CCN)CC2)c1` [Compound 25, (4-(2-Aminoethyl)piperidin-1-yl)(m-tolyl)methanone], for which, on TAAR1, the activation at 10 µM came out at 41% and the EC50 is 634 nM.

For the compound `Cl.NCCC1CCN(S(=O)(=O)c2ccccc2)CC1` [Compound 26, 2-[1-(Phenylsulfonyl)piperidin-4-yl]ethanamine hydrochloride], the “Agonistic Activity (class Inactive)” value at TAAR1 was “Inactive”.

Turning to `Cl.NCCC1CCN(S(=O)(=O)c2ccc(F)cc2)CC1` [Compound 27, 2-{1-[(4-Fluorophenyl)sulfonyl]piperidin-4-yl}ethanamine hydrochloride], the “Agonistic Activity (class Inactive)” value on TAAR1 is reported as “Inactive”.

Regarding `Cc1ccc(S(=O)(=O)N2CCC(CCN)CC2)cc1.Cl` [Compound 28, 2-{1-[(4-Methylphenyl)sulfonyl]piperidin-4-yl}ethanamine hydrochloride], the “Agonistic Activity (class Inactive)” value at TAAR1 is on record as “Inactive”.

As to `CN1CCC(CCN)CC1.Cl.Cl` [Compound 29, 2-(1-Methylpiperidin-4-yl)ethan-1-amine dihydrochloride], on TAAR1, the “TAAR1 Activity (active / inactive, in words)” value was “inactivity” and the “Agonistic Activity (class Inactive)” value is reported as “Inactive”.
